Assay results: US20050256037A1, “Antibacterial amide macrocyles” (Bayer HealthCare AG, priority 2003, published 2005)
Values after ≈ are worked out from the molar mass of the structure shown. Structures can show the parent of a compound that is named as a salt. Where two headings read alike, the source gives them in different places. Marks after values point to notes of the source that are not given here.

Columns and labels:
Type in all cases: cell-based
S. aureus T17 [1] = test: MIC, liquid dilution test in minimal medium (96-well microtitre plate); conditions: Staphylococcus aureus, T17, read-out: MIC S. aureus T17
Procedure: Determination of the Minimum Inhibitory Concentration (MIC)
The minimum inhibitory concentration (MIC) is the minimum concentration of an antibiotic with which the growth of a test microbe is inhibited over 18-24 h. The inhibitor concentration can in these cases be determined by standard microbiological methods (see, for example, The National Committee for Clinical Laboratory Standards. Methods for dilution antimicrobial susceptibility tests for bacteria that grow aerobically; approved standard-fifth edition. NCCLS document M7-A5 [ISBN 1-56238-394-9]. NCCLS, 940 West Valley Road, Suite 1400, Wayne, Pa. 19087-1898 USA, 2000). The MIC of the compounds of the invention is determined in the liquid dilution test on the 96-well microtitre plate scale. The bacterial microbes are cultivated in a minimal medium (18.5 mM Na2HPO4, 5.7 mM KH2PO4, 9.3 mM NH4Cl, 2.8 mM MgSO4, 17.1 mM NaCl, 0.033 μg/ml thiamine hydrochloride, 1.2 μg/ml nicotinic acid, 0.003 μg/ml biotin, 1% glucose, 25 μg/ml of each proteinogenic amino acid with the exception of phenylalanine; [H.-P. Kroll; unpublished]) with addition of 0.4% BH broth (test medium). In the case of Enterococcus faecium L4001, heat-inactivated fetal calf serum (FCS; GibcoBRL, Germany) is added to the test medium in a final concentration of 10%. Overnight cultures of the test microbes are diluted to an OD578 of 0.001 (to 0.01 in the case of enterococci) in fresh test medium, and incubated 1:1 with dilutions of the test substances (1:2 dilution steps) in test medium (200 μl final volume). The cultures are incubated at 37° C. for 18-24 hours; enterococci in the presence of 5% CO2.
The lowest substance concentration in each case at which bacterial growth was no longer visible is defined as the MIC. […] The compounds show a graded antibacterial effect against most of the test microbes.
The S. aureus strain T17 is isolated in vivo. CFW1 mice are infected intraperitoneally with 4×10^7 S. aureus 133 cells per mouse. 0.5 h after the infection, the animals are treated intravenously with 50 mg/kg biphenomycin B. The kidneys are removed from the surviving animals on day 3 after the infection. After homogenization of the organs, the homogenates are plated out as described for RN4220Bi^R on antibiotic-free and antibiotic-containing agar plates and incubated at 37° C. overnight. […] About 20 of these colonies are tested for the biphenomycin B MIC, and a colony with an MIC of >50 μM is selected for further cultivation, and the strain is referred to a T17.

E. faecium L4001 = test: MIC, alternative method: agar dilution test with 20% defibrinated horse blood; conditions: Enterococcus faecium
Procedure: (§1) Alternative Method for Determining the Minimum Inhibitory Concentration (MIC)
(§2) The minimum inhibitory concentration (MIC) is the minimum concentration of an antibiotic with which the growth of a test microbe is inhibited over 18-24 h. The inhibitor concentration can be determined by standard microbiological methods using modified medium in an agar dilution test (see, for example, the National Committee for Clinical Laboratory Standards. Methods for dilution antimicrobial susceptibility tests for bacteria that grow aerobically; approved standard-fifth edition. NCCLS document M7-A5 [ISBN 1-56238-394-9]. NCCLS, 940 West Valley Road, Suite 1400, Wayne, Pa. 19087-1898 USA, 2000). The bacterial microbes are cultivated on 1.5% agar plates containing 20% defibrinated horse blood. The test microbes, which are incubated on Columbia blood agar plates (Becton-Dickinson) overnight, are diluted in PBS, adjusted to a microbe count of about 5×10^5 microbes/ml and placed as drops (1-3 μl) on test plates. The test substances contain various dilutions of the test substances (1:2 dilution stages). The cultures are incubated at 37° C. in the presence of 5% CO2 for 18-24 hours.
(§3) The lowest concentration of each substance at which no visible bacterial growth occurs is defined as the MIC and is reported in μg/ml.

S. aureus E33 = test: as above; conditions: Staphylococcus aureus
Procedure: as §1, §2, §3

S. aureus T17 [2] = test: as above; conditions: Staphylococcus aureus
Procedure: as §1, §2, §3

S. aureus 133 = test: Rate of spontaneous resistance
Procedure: Determination of the Rates of Spontaneous Resistance to S. aureus
The spontaneous resistance rates for the compounds of the invention are determined as follows: the bacterial microbes are cultivated in 30 ml of a minimal medium (18.5 mM Na2HPO4, 5.7 mM KH2PO4, 9.3 mM NH4Cl, 2.8 mM MgSO4, 17.1 mM NaCl, 0.033 μg/ml thiamine hydrochloride, 1.2 μg/ml nicotinic acid, 0.003 μg/ml biotin, 1% glucose, 25 μg/ml of each proteinogenic amino acid with the addition of 0.4% BH broth) at 37° C. overnight, centrifuged at 6000×g for 10 min and resuspended in 2 ml of phosphate-buffered physiological NaCl solution (about 2×10^9 microbes/ml). […] The resulting colonies (cfu) are counted.

[3] = L4001, read-out: MIC E. faecium L4001
[4] = E33, read-out: MIC S. aureus E33
[5] = T17, read-out: MIC S. aureus T17

| SMILES | MIC (S. aureus T17 [1]) [µM] | MIC (E. faecium L4001; [3]) [µg/mL] | MIC (S. aureus E33; [4]) [µg/mL] | MIC (S. aureus T17 [2]; [5]) [µg/mL] | Rate of spontaneous resistance S. aureus 133 (S. aureus 133; 10 × MIC) | MIC (E. faecium L4001; L4001, Table B, agar dilution, 20% defibrinated horse blood, read-out: MIC E. faecium L4001) [µg/mL] | MIC (S. aureus E33; E33, Table B, agar dilution, 20% defibrinated horse blood, read-out: MIC S. aureus E33) [µg/mL] | MIC (S. aureus T17 [2]; T17, Table B, agar dilution, 20% defibrinated horse blood, read-out: MIC S. aureus T17) [µg/mL] | Rate of spontaneous resistance S. aureus 133 (S. aureus 133) |
| --- | --- | --- | --- | --- | --- | --- | --- | --- | --- |
| CN1C(=O)[C@H](C[C@@H](O)CN)NC(=O)[C@@H](N)Cc2cc(ccc2O)-c2ccc(O)c(c2)C[C@H]1C(=O)NCCN [Example 1, (8S,11S,14S)-14-amino-N-(2-aminoethyl)-11-[(2R)-3-amino-2-hydroxypropyl]-5,17-dihydroxy-9-methyl-10,13-dioxo-9,12-diazatricyclo[14.3.1.1.^2,6]henicosa-1(20),2(21),3,5,16,18-hexaene-8-carboxamide, trihydrochloride] | 3.1 | 16 | 4 | 4 | <4 × 10^−8 |  |  |  |  |
| NC[C@H](O)C[C@@H]1NC(=O)[C@@H](N)Cc2cc(ccc2O)-c2ccc(O)c(c2)C[C@@H](C(=O)O)NC1=O [Example 20A, 14(S)-Amino-1(S)-(3-amino-2(R)-hydroxypropyl)-5,17-dihydroxy-10,13-dioxo-9,12-diazatricyclo[14.3.1.1^2,6]henicosa-1(19),2,4,6(21),16(20),17-hexaene-8(S)-carboxylic acid dihydrochloride, reference compound] | > 25 |  |  |  | <1.7 × 10^−6 | 0.5 | < 0.03 | > 32 |  |
| NCCC[C@@H]1NC(=O)[C@@H](N)Cc2cc(ccc2O)-c2ccc(O)c(c2)C[C@@H](C(=O)NCCN)NC1=O [Example 6, (8S,11S,14S)-14-amino-N-(2-aminoethyl)-11-(3-aminopropyl)-5,17-dihydroxy-10,1 3-dioxo-9,12-diazatricyclo[14.3.1.1^2,6]henicosa-1(20),2(21),3,5,16,18-hexaene-8-carboxamide] | 3.1 (≈ 1.55 µg/mL) | 8 (≈ 16 µM) | 0.5 (≈ 1 µM) | 2 (≈ 4.01 µM) | <8 × 10^−9 |  |  |  | <8 × 10^−9* |
